IC50 and EC50 data for 11 compounds are collected here from patent US8486996B2, “Aroylfuranes and aroylthiophenes” (Basilea Pharmaceutica AG, priority 2006, dated 2013).

Common to all, as to format: cell-based
Assay [1] in a line: MTS proliferation assay (72 h read-out). To be noted: MRC5 cells. Put shortly: (§1)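 Viability was read by MTS absorbance at 492 nm after 3 h with reagent. Before that, cells plated a day earlier at 1.5×10^3–10^4 per well had been incubated with test compound at final concentrations of 0.001–10 μM for 72 h; activity is given as category scores A–D.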
A general note: Formazan colour is commonly taken as a measure of viable cells.

Assay [2] relates to tumor cells. The experiment in a line: MTS proliferation assay (72 h read-out). Put shortly: as §1
A short description of assay [3]: Mitochondrial membrane potential, JC-1 (read-out 48 h). To be noted: PBL, JC-1, 48 h. Summed up:
(§2)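 Tumor cells were treated with test compounds (adherent cells after 24 h of attachment, suspension cells immediately), medium holding up to 5% DMSO. After 48 h, JC-1 (2-5 μg/ml in added medium) was applied for 30 min. Fluorescence microscopy (FITC/TRITC filters) scored the fraction of cells with dissipated mitochondrial membrane potential as categories A-D.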

The subject of assay [4] is tumor cells. Described as above. To be noted: JC-1, 48 h. Summed up:
as §2

Assay [5] in a line: Hoechst 33342 nuclear staining (48 h read-out). Put shortly:
(§3)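 Adherent cells pre-spread 24 h before dosing, suspension cells dosed at seeding; compounds at 0.001 μM-10 μM final, 48 h at culture conditions. Hoechst 33342 (2-5 μg/ml) added for 30 min, then fluorescence microscopy scoring of apoptotic nuclear fraction and apoptosis-specific morphology, reported as scores A-D.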

Assay [6] relates to tumor cells. The experiment in a line: Hoechst 33342 nuclear staining (48 h read-out). Put shortly: as §3
The mark [7] stands for this setting: HT1080 cells, read-out: MTS proliferation assay IC50, HT1080.
Where [8] appears, read: HeLa cells, read-out: MTS proliferation assay IC50, HeLa.
[9] abbreviates: Jily cells, read-out: MTS proliferation assay IC50, Jily.
The mark [10] stands for this setting: Jurkat cells, read-out: MTS proliferation assay IC50, Jurkat.
[11] abbreviates: HeLa cells, read-out: Mitochondrial membrane potential (read-out 48 h) HeLa.
The mark [12] stands for this setting: Jily cells, read-out: Mitochondrial membrane potential (read-out 48 h) Jily.
[13] abbreviates: Jurkat cells, read-out: Mitochondrial membrane potential (read-out 48 h) Jurkat.
The mark [14] stands for this setting: MCF7 cells, read-out: Mitochondrial membrane potential (read-out 48 h) MCF7.
Where [15] appears, read: MRC5 cells, read-out: Hoechst 33342 nuclear staining EC50, MRC5.
Where [16] appears, read: PBL, read-out: Hoechst 33342 nuclear staining EC50, PBL.
The mark [17] stands for this setting: HeLa cells, read-out: Hoechst 33342 nuclear staining EC50, HeLa.
The mark [18] stands for this setting: Jily cells, read-out: Hoechst 33342 nuclear staining EC50, Jily.
Where [19] appears, read: Jurkat cells, read-out: Hoechst 33342 nuclear staining EC50, Jurkat.

Read-outs that look alike come from different tables or passages of the source.

Turning to `CCOc1ccc(C(=O)O)cc1C(=O)c1oc2ccc(Cl)cc2c1N` [Example 44], the IC50 in assay [1], in assay [2] (setting [7]), in assay [2] (setting [8]), in assay [2] (setting [9]) and in assay [2] (setting [10]) was over 1 µM each time. The EC50 in assay [3], in assay [4] (setting [11]), in assay [4] (setting [12]), in assay [4] (setting [13]), in assay [4] (setting [14]) and in assay [5] (setting [15]) was over 1 µM in each case. Moreover, the EC50 in assay [5] (setting [16]), in assay [6] (setting [17]), in assay [6] (setting [18]) and in assay [6] (setting [19]) was over 1 µM each time.
In the case of `CCOc1ccccc1C(=O)c1oc2ccc(F)cc2c1N` [Example 45], the IC50 in assay [1], in assay [2] (setting [7]), in assay [2] (setting [8]), in assay [2] (setting [9]) and in assay [2] (setting [10]) was over 1 µM in each case. Also, the EC50 in assay [3], in assay [4] (setting [11]), in assay [4] (setting [12]), in assay [4] (setting [13]), in assay [4] (setting [14]) and in assay [5] (setting [15]) was over 1 µM in each case. Moreover, the EC50 in assay [5] (setting [16]), in assay [6] (setting [17]), in assay [6] (setting [18]) and in assay [6] (setting [19]) was over 1 µM in each case.
With `CCOc1ccc(S(=O)(=O)N(C)C)cc1C(=O)c1oc2ccc(Cl)cc2c1N` [Example 46], the IC50 in assay [1], in assay [2] (setting [7]), in assay [2] (setting [8]), in assay [2] (setting [9]) and in assay [2] (setting [10]) was over 1 µM each time. Also, the EC50 in assay [3], in assay [4] (setting [11]), in assay [4] (setting [12]), in assay [4] (setting [13]), in assay [4] (setting [14]) and in assay [5] (setting [15]) was over 1 µM in each case. Also, the EC50 in assay [5] (setting [16]), in assay [6] (setting [17]), in assay [6] (setting [18]) and in assay [6] (setting [19]) was over 1 µM throughout.
For the compound `CCOc1ccccc1C(=O)c1oc2ccc(OC)cc2c1N` [Example 47], the IC50 was 0.01 to 0.1 µM in assay [1]; under 0.01 µM in assay [2] (setting [7]); 0.01 to 0.1 µM in assay [2] (setting [8]); under 0.01 µM in assay [2] (setting [9]); under 0.01 µM in assay [2] (setting [10]). For the same compound, the EC50 in assay [3] is over 1 µM; in assay [4] (setting [11]) it was 0.01 to 0.1 µM; in assay [4] (setting [12]), 0.01 to 0.1 µM; in assay [4] (setting [13]), 0.01 to 0.1 µM; in assay [4] (setting [14]), over 1 µM; in assay [5] (setting [15]), 0.01 to 0.1 µM. Further, the EC50 in assay [5] (setting [16]) was over 1 µM; in assay [6] (setting [17]), 0.01 to 0.1 µM; in assay [6] (setting [18]), under 0.01 µM; in assay [6] (setting [19]) it was under 0.01 µM.
On to `CCOc1ccc(F)cc1C(=O)c1oc2ccc(OC)cc2c1NC(=O)OC` [Example 49], for which the IC50 in assay [1] lay in the range of 0.01 to 0.1 µM; in assay [2] (setting [7]) it was 0.01 to 0.1 µM; in assay [2] (setting [8]), 0.1 to 1 µM; in assay [2] (setting [9]) it was 0.01 to 0.1 µM; in assay [2] (setting [10]), 0.01 to 0.1 µM. Besides, the EC50 in assay [3] is over 1 µM; in assay [4] (setting [11]), 0.1 to 1 µM; in assay [4] (setting [12]) it was 0.01 to 0.1 µM; in assay [4] (setting [13]), 0.01 to 0.1 µM; in assay [4] (setting [14]), over 1 µM; in assay [5] (setting [15]), over 1 µM. Also, the EC50 is over 1 µM in assay [5] (setting [16]), 0.1 to 1 µM in assay [6] (setting [17]), 0.01 to 0.1 µM in assay [6] (setting [18]) and 0.01 to 0.1 µM in assay [6] (setting [19]).
On to `CCOc1ccc(F)cc1C(=O)c1oc2ccc(OC)cc2c1NS(=O)(=O)N(C)C` [Example 50], for which the IC50 in assay [1] was over 1 µM; in assay [2] (setting [7]), over 1 µM; in assay [2] (setting [8]), over 1 µM; in assay [2] (setting [9]) it was 0.1 to 1 µM; in assay [2] (setting [10]), 0.1 to 1 µM. Also, the EC50 was over 1 µM in assay [3]; over 1 µM in assay [4] (setting [11]); over 1 µM in assay [4] (setting [12]); 0.1 to 1 µM in assay [4] (setting [13]); over 1 µM in assay [4] (setting [14]); over 1 µM in assay [5] (setting [15]). Moreover, the EC50 was over 1 µM in assay [5] (setting [16]), over 1 µM in assay [6] (setting [17]), 0.1 to 1 µM in assay [6] (setting [18]) and 0.1 to 1 µM in assay [6] (setting [19]).
As to `CCOc1ccccc1C(=O)c1oc2ccc(NC(=O)OC(C)(C)C)cc2c1N` [Example 51], the IC50 in assay [1], in assay [2] (setting [7]), in assay [2] (setting [8]) and in assay [2] (setting [9]) was over 1 µM in each case. Further, the EC50 in assay [3], in assay [4] (setting [11]), in assay [4] (setting [12]), in assay [4] (setting [13]), in assay [4] (setting [14]) and in assay [5] (setting [15]) was over 1 µM each time. In addition, the EC50 in assay [5] (setting [16]), in assay [6] (setting [17]), in assay [6] (setting [18]) and in assay [6] (setting [19]) was over 1 µM throughout.
As to `CCOc1ccccc1C(=O)c1oc2ccc(N)cc2c1N` [Example 52], the IC50 is over 1 µM in assay [1], over 1 µM in assay [2] (setting [7]), over 1 µM in assay [2] (setting [8]) and 0.1 to 1 µM in assay [2] (setting [9]). In addition, the EC50 in assay [3] is over 1 µM; in assay [4] (setting [11]), over 1 µM; in assay [4] (setting [12]), 0.1 to 1 µM; in assay [4] (setting [13]), 0.1 to 1 µM; in assay [4] (setting [14]) it was over 1 µM; in assay [5] (setting [15]), over 1 µM. Also, the EC50 in assay [5] (setting [16]) was over 1 µM; in assay [6] (setting [17]), over 1 µM; in assay [6] (setting [18]), 0.1 to 1 µM; in assay [6] (setting [19]) it was 0.1 to 1 µM.
Take `CCOc1ccc(F)cc1C(=O)c1oc2ccc(OC)cc2c1NS(C)(=O)=O` [Example 54]: the IC50 in assay [1], in assay [2] (setting [7]), in assay [2] (setting [8]) and in assay [2] (setting [9]) was 0.01 to 0.1 µM throughout. Also, the EC50 in assay [3] is over 1 µM; in assay [4] (setting [11]), 0.1 to 1 µM; in assay [4] (setting [12]) it was 0.1 to 1 µM; in assay [4] (setting [13]), 0.01 to 0.1 µM; in assay [4] (setting [14]) it was 0.01 to 0.1 µM; in assay [5] (setting [15]) it was 0.1 to 1 µM. Further, the EC50 is over 1 µM in assay [5] (setting [16]), 0.1 to 1 µM in assay [6] (setting [17]), 0.01 to 0.1 µM in assay [6] (setting [18]) and 0.01 to 0.1 µM in assay [6] (setting [19]).
`CCOc1ccccc1C(=O)c1oc2ccccc2c1N` [Example 55]: the IC50 in assay [1] lay in the range of 0.1 to 1 µM; in assay [2] (setting [7]), 0.1 to 1 µM; in assay [2] (setting [8]) it was 0.1 to 1 µM; in assay [2] (setting [9]), 0.01 to 0.1 µM; in assay [2] (setting [10]), 0.01 to 0.1 µM. Besides, the EC50 in assay [3] was over 1 µM; in assay [4] (setting [11]), over 1 µM; in assay [4] (setting [12]), 0.01 to 0.1 µM; in assay [4] (setting [13]), 0.1 to 1 µM; in assay [4] (setting [14]) it was 0.1 to 1 µM; in assay [5] (setting [15]) it was over 1 µM. The EC50 was over 1 µM in assay [5] (setting [16]), over 1 µM in assay [6] (setting [17]), 0.1 to 1 µM in assay [6] (setting [18]) and 0.1 to 1 µM in assay [6] (setting [19]).
`CCOc1ccc(F)cc1C(=O)c1oc2ccccc2c1N` [Example 56]: the IC50 in assay [1] is 0.01 to 0.1 µM; in assay [2] (setting [7]), 0.01 to 0.1 µM; in assay [2] (setting [8]) it was 0.01 to 0.1 µM; in assay [2] (setting [9]) it was under 0.01 µM; in assay [2] (setting [10]), under 0.01 µM. The EC50 in assay [3] is over 1 µM; in assay [4] (setting [11]), 0.1 to 1 µM; in assay [4] (setting [12]) it was 0.1 to 1 µM; in assay [4] (setting [13]), 0.01 to 0.1 µM; in assay [4] (setting [14]) it was 0.1 to 1 µM; in assay [5] (setting [15]), over 1 µM. Moreover, the EC50 in assay [5] (setting [16]) was over 1 µM; in assay [6] (setting [17]) it was 0.1 to 1 µM; in assay [6] (setting [18]) it was 0.01 to 0.1 µM; in assay [6] (setting [19]), 0.01 to 0.1 µM.
